Data on three molecules can be found in the NIST ThermoML archive (doi:10.1016/j.jct.2015.03.022).

Numbers after ± are expanded uncertainties.

For this data set the following is noted: Crystal; DTA.

Consider `[Br-].[Li+]` [lithium bromide], for which the Normal melting temperature turned out to be 551 ± 0.6 °C.

Regarding `[F-].[Li+]` [lithium fluoride], the Normal melting temperature came out at 844 ± 0.6 °C.

On to `[Ag][I]` [silver iodide], for which the Normal melting temperature was 559 ± 0.6 °C.
